Experimental data as given in PMC10325900, “A conserved motif in the disordered linker of human MLH1 is vital for DNA mismatch repair and its function is diminished by a cancer family mutation” (Nucleic Acids Research, 2023).
Entries after “also recorded” stand apart in the source; their conditions may differ. No end group written: not given here.

Molecular target: T1, MLH1-ΔConMot-PMS2 (Homo sapiens, UniProt P40692+P54278, DEL377-396)
T1 construct: The pcDNA3 expression vector containing the entire open reading frame of human MLH1; expressed in transfected cells; host or cells: HEK293T (MLH1-deficient), transiently co-transfected
T1 sequence (P40692 with tags, fused parts or gaps DEL377-396): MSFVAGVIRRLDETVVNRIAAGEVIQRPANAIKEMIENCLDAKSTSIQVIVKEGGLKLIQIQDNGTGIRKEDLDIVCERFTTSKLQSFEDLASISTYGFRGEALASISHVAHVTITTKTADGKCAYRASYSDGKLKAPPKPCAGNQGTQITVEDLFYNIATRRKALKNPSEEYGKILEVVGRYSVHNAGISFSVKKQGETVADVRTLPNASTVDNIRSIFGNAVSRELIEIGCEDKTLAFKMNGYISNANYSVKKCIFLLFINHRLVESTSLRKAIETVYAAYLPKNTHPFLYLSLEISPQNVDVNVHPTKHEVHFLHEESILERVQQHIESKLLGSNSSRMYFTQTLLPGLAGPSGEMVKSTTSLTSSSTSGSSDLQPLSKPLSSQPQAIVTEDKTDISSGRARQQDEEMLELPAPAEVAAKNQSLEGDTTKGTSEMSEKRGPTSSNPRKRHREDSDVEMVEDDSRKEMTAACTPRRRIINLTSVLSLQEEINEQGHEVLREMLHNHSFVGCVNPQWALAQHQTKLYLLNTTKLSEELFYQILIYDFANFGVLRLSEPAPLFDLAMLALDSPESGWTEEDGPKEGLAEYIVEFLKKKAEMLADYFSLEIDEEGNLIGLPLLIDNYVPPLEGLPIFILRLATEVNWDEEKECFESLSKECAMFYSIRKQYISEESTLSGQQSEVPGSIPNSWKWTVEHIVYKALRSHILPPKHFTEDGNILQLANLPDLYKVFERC
T1 sequence (P54278 1-862 partner): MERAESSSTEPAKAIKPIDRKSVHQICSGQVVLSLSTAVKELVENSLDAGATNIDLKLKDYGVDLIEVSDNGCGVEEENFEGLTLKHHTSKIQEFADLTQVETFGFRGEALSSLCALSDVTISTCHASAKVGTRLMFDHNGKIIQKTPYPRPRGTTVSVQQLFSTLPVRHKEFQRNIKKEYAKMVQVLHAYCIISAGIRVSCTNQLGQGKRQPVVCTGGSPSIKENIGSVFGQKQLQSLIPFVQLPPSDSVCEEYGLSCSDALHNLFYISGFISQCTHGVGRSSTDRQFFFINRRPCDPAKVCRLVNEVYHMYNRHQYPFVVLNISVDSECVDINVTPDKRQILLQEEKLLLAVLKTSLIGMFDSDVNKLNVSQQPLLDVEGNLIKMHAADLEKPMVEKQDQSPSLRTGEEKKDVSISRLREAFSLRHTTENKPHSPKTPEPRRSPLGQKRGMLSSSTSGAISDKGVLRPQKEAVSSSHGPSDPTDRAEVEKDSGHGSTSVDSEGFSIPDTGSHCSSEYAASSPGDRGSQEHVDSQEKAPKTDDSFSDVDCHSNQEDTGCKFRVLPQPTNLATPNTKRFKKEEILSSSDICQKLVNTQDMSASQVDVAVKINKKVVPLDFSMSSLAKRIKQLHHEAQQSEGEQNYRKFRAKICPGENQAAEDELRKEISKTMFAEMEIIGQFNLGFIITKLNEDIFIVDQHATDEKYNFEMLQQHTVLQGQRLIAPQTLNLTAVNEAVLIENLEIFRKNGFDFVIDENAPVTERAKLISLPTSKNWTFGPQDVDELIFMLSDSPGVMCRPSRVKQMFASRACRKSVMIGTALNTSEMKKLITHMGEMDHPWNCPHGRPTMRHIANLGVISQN
Test: DNA mismatch repair (MMR) complementation assay with peptide, MLH1-ΔConMot variant
Assay type: biochemical
Procedure: Mismatch repair activity was assessed as described in detail before ([79],[81]) (Supplementary Figure S3). […] Mismatched DNA plasmid substrate (Supplementary Figure S3) prepared according to previously published procedures ([81–83]) was added, and reactions in a final volume of 25 μl were incubated at 37°C for 15 min. Repair efficiency was scored by purifying the mismatched DNA plasmid from the reaction and assessing the fraction of homoduplex sequence by restriction digestion of the mismatched site using EcoRV. The substrate was additionally linearized with AseI.
For complementation assays with peptide, the indicated peptide(s) were used at stock concentrations of 50 or 500 μM in HEPES–KOH 20 mM pH 7.6 and supplemented to the MMR reactions.
Figure 4. Reaction of DNA mismatch repair to addition of ConMot peptide. (A) Nuclear extract of MLH1-proficient HEK293 cells was used for performing the DNA mismatch repair reaction. Four reactions were undertaken, with two reactions supplemented with either 7.5 μM or 75 μM ConMot-32 peptide. A negative control reaction was performed by omitting the 37°C repair incubation. (B) MMR reactions were performed with nuclear extract of MLH1-deficient HEK293T cells supplemented with extract of cells transfected either with wildtype MLH1-PMS2 (positive control) or with MLH1-ΔConMot-PMS2. To these MMR reactions, different peptides were added at a concentration of 75 μM: A ConMot-32 peptide (A), a Scramble-32 peptide (B) in which the conserved ConMot sequence is scrambled, and a short ConMot-20 peptide (C) that only contains the twenty highly conserved ConMot residues. The peptide sequences are given below the gel image. (C) The concentration-dependence of the MMR-activating effect of the ConMot-32 peptide observed in (B) was measured over a concentration range from 1–75 μM. (D) Theoretical binding curves of a ligand (peptide) to a protein were calculated for dissociation constants (KD) of 1, 5 and 10 μM for a protein concentration as present for MLH1-PMS2 in the MMR assay reactions (see also Supplementary Figure S3). Into this diagram, the average MMR activities (and standard deviations) measured in >3 of the experiment exemplarily shown in C were introduced as bars at ConMot-32 peptide concentrations of 1, 2.5, 7.5, 18 and 75 μM.
Second, we used extract of the repair-deficient cell line HEK293T supplemented with either wildtype MutLα (MLH1-PMS2) or the ΔConMot deletion variant, corresponding to experiment shown in Figure 2B. In this experiment, we again added ConMot peptide.
We investigated the effect of the ConMot peptide more closely by titrating the required peptide concentrations for activation. We determined that the mismatch repair reactions performed in this study contained approximately 280 fmol MLH1 (Supplementary Figure S4A and B), which is in good agreement with previous quantifications of MLH1-PMS2 in cells and extracts ([96]). […] Dissociation constants (KD) for peptides to proteins are typically in the range of 1–10 μM ([97]). We compared the measured concentration-dependent MMR activities with theoretical binding curves of (peptide) ligands to (protein) substrates for KD values of 1, 5 and 10 μM (Supplementary Figure S4C) at the determined MLH1 concentration. […] It is therefore plausible that a binding reaction of the ConMot peptide (to a protein) underlies the restauration of MMR activity. […]
Deletion C on M ot (∆Co nMot) c.1129_1188del CTGCAGCCTCTGAGCAAA […]
Del et i on comp are (∆Compare) c.1221_1280del […] ACTGGACAGGGGTTTGCT
Scramble c.1147_1160delinsGAC ggtacgtTCCCGGGAACAGAAGCT atagtgtcCTGGTGGGCATAGACCT
p.(M383_D387delinsDTMVR) ACTATGGTAC G T TATC
ConMot hy bri d gcataTCTGCAGCCTCTGAGCAA acagg[…]
Supplementary Table 1: Analyzed variant inf ormation.
Variant descriptions confer to HGVS format and refer to the MLH1 reference cDNA (NM_000249.4) […]

[1] = ConMot-32, concentration range 1–75 μM, approximately 280 fmol MLH1 (11.1 nM), 37°C, 15 min, >3 experiments

SGSSDKVYAHQMVRTDSREQKLDAFLQPLSKP [ConMot-32]
peptide concentration at which almost complete activation was achieved (MMR) [1]: 75 µM
peptide concentration at which increase in MMR activity became detectable [1]: 1 µM
EC50 (ConMot-32, concentration range 1–75 μM, approximately 280 fmol MLH1 (11.1 nM), 37°C, 15 min, >3 experiments, read-out: peptide concentration at which 50% activation was achieved (MMR)): 7.5 µM
effect of peptide on MMR (summary in Supplementary Table 2) (molar ratio 0-860-2300-8600 to hMLH1-PMS2, Tris-HCl pH 7.5, 5 mM Mg2+, 1.5 mM ATP): activating
restoration of DNA mismatch repair activity of the ΔConMot variant (peptide 75 μM (Figure 4B), HEK293T nuclear extract 50 μg + 5 μg transfected extract, 25 μl, 37°C, 15 min, EcoRV/AseI digestion, agarose gel, listed as ConMot-peptide): could be overcome; also recorded: possible to overcome the MMR-deficiency
